The values that follow come from US12465630B2, “Small peptide compositions and uses thereof” (University of Pittsburgh—Of the Commonwealth System of …, priority 2018, dated 2025).

“Also recorded” adds a separate entry of the source. Ends that are not written are not given here.

One data set has as its system primary lung fibroblasts. To be noted: for number of viable cells (Calcein-AM uptake): 1 to 1000 ng/mL, 24 hours. The protocol: The effect of IP-10-related peptides on viability of lung fibroblasts was evaluated. Primary lung fibroblasts from healthy patients (SC31 and SC45) were either left untreated or treated with various concentrations of peptides (1 to 1000 ng/mL) for 24 hours. Treatment for 30 minutes with 70% ethanol in water was used as a positive control for dead cells. The Molecular Probes LIVE/DEAD Viability/Cytotoxicity Kit for mammalian cells (Invitrogen) was used to stain live cells. Following the manufacturer's protocol, at the end of treatment, cells in 96-well plates were washed with PBS, and then incubated in 2 μM Calcein-AM solution for 45 minutes at room temperature. Following incubation, the cells were imaged under a fluorescence microscope using the GFP channel. For quantification, ImageJ was used to count the number of live cells per field.

The next data set concerns cardiomyocytes. Description: Motility (scratch) assay, cardiomyocytes. It is filed as cell-based, mouse. To be noted: TGFβ1 10 ng/mL + agent 10 μM, 24 h; FIG. 1A. As to the method:
(§1) Primary cardiac fibroblasts and cardiomyocytes were isolated from both wild-type and CXCR3−/− neonatal mouse pups. After washing in PBS, hearts were stirred for 5 minutes in 0.5% trypsin at 37° C. to dissociate cells into solution. The suspended cells were then transferred to DMEM containing 20% fetal bovine serum (FBS) on ice to inactivate trypsin activity, and dissociation was repeated twice more with fresh trypsin solution. Cells were then washed and plated into 6-well plates at 1.25×10^6 cells/well, suspended in cardiac cell media (DMEM containing 7.5% dialyzed FBS and 1% antibiotic/antimitotic solution). After three hours, adhered fibroblasts were separated from the unattached cardiomyocytes through resuspension of the cells, and cardiomyocytes were plated separately at a density of 5×10^5 cells/ml.
(§2) To determine the effect of IP-10p on TGFβ1-induced cell migration, motility assays were performed on cardiac fibroblasts, cardiomyocytes, and co-cultures (2:1 ratio of cardiomyocytes to fibroblasts). Cells were plated at 2.5×10^5 cells/well in a 12-well uncoated plate in depleted media (DMEM containing 0.5% FBS) 24 hours before beginning the experiment. A pipette tip was used to create a scratch in the monolayer and the plate was washed twice with PBS to remove scraped cells. Cells were then treated with TGFβ1 (R&D Systems, Minneapolis, MN) alone (10 ng/mL) to stimulate fibrosis, CXCL10 alone (10 μM), IP-10p alone (10 μM), TGFβ1+CXCL10, TGFβ1+IP-10p, or left untreated. Images were taken immediately after scratching and 24 hours later, and Adobe Photoshop was used to quantify wound motility as distance between wound edges relative to the initial scratch width.

Data set [1] concerns cardiac fibroblasts. The data set is described as follows: Motility (scratch) assay, cardiac fibroblasts. It counts as cell-based, mouse. The protocol: as §1, §2
In data set [2] the test system is cardiac fibroblasts (CF) and cardiomyocytes (CM). The data set is described as follows: In vitro cellular function assays on CM and CF (P38 signaling, motility, ECM). It is filed as cell-based, mouse. An excerpt:
(§3) CM and CF were isolated from wild type and CXCR3-null FVB neonatal mice. Following isolation, CM, CF, or CM/CF in both direct and indirect co-cultures were challenged with CM and CF activating growth factor transforming growth factor […]. Antagonist peptide treatments, CRF-5-3 and CRF-5-5, were given alone or in combination with CXCL10. To determine whether CRF-5-3 and CRF-5-5 block CXCL10 binding to its receptor, the ability of biotin-tagged CXCL10 and/or FITC-tagged CRF-5-5 to compete for binding to CM and CF was analyzed using flow cytometry. In vitro cellular function assays were assessed for migration, apoptosis, and extracellular matrix (ECM) secretion. Real time quantitative polymerase chain reaction was employed in order to determine modified relative gene expression of both CM and FB, following treatment.

A further data set relates to CM/CF co-cultures. The data set is described as follows: Histochemical and fluorescence analyses of ECM in CM/CF co-cultures. It is filed as cell-based, mouse.
Text: as §3

The test system of the next data set is cardiomyocytes (CM). The data set is described as follows: Real time quantitative PCR relative gene expression, cardiomyocytes. It is filed as cell-based, mouse. To be noted: peptide with CXCL10.
Text: as §3

The subject of another data set is cardiac fibroblasts (CF). Description: Real time quantitative PCR relative gene expression, cardiac fibroblasts. It is filed as cell-based, mouse. To be noted: peptide with CXCL10.
Text: as §3

Data set [3] deals with cardiac fibroblasts. The data set is described as follows: P38 MAPK-dependent extracellular matrix production in cardiac fibroblasts. It counts as cell-based, mouse.
Text: as §3

Consider `CCO` [ethanol, reference compound], for which the “Calcein-AM positive cells, positive control for dead cells” value with primary lung fibroblasts (70% ethanol in water, 30 minutes) is listed as “elimination of the detected Calcein-AM positive cells”.

For the compound C-X-C chemokine ligand 10 [CXCL10], the “cardiomyocyte motility in the presence of TGFβ1” value with cardiomyocytes is reported as “completely inhibited; also recorded: inhibit migration”. For the same compound, in the data set with cardiac fibroblasts [1] (10 μM alone, 24 h, compared to control), the “motility of cardiac fibroblasts, agent alone” value is reported as “not altered”. For the same compound, the “migration following TGF-β induction in cardiac fibroblasts” value in the data set on cardiac fibroblasts [1] (FIG. 1B) is “inhibit migration”. In addition, the “reduction of motility of TGFβ1-treated fibroblasts” value in the data set on cardiac fibroblasts [1] (TGFβ1 10 ng/mL + agent 10 μM, 24 h) was 30%.

With “FAKAIKNFAKAVAKFA [IP-10-3, FAKAIKNFAKAVAKFA]”, the “number of viable cells (Calcein-AM uptake)” value (shortened to “number … (Calcein-AM uptake)”) in the data set with primary lung fibroblasts was “no impact”.

Regarding FRFLFRGGRFLFRF [CRF-5-3], in data set [2], the “CXCL10-suppressed growth factor-induced ECM production” value is “promote the disinhibition”, the “CXCL10-suppressed growth factor-induced intracellular P38 signaling” value is recorded as “promote the disinhibition” and the “CXCL10-suppressed growth factor-induced motility” value was “promote the disinhibition”. In the data set with CM/CF co-cultures, the “ECM alterations following TGF-β and/or CXCL10 treatment” value is on record as “CRF-5-3-mediated alterations”. In the data set on cardiomyocytes (CM), the “CXCL10-induced gene expression on CM” value is “altered”. For the same compound, in the data set with cardiac fibroblasts (CF), the “CXCL10-induced gene expression on FB” value is listed as “altered”. Further, in the data set on cardiac fibroblasts [3], the “CXCL10 inhibition of TGF-β-induced P38 MAPK-dependent extracellular matrix production” value was “altered”.

With FRWLWRGGRWLWRF [CRF-5-5], in data set [2], the “CXCL10-suppressed growth factor-induced ECM production” value is listed as “promote the disinhibition”, the “CXCL10-suppressed growth factor-induced intracellular P38 signaling” value is listed as “promote the disinhibition”, the “CXCL10-suppressed growth factor-induced motility” value is recorded as “promote the disinhibition” and the “CXCL10 inhibition of TGF-β-induced matrix production” value is listed as “interfered”. The “CXCL10-induced gene expression on CM” value with cardiomyocytes (CM) is “altered”. The “CXCL10-induced gene expression on FB” value in the data set on cardiac fibroblasts (CF) is “altered”. For the same compound, the “CXCL10 inhibition of TGF-β-induced P38 MAPK-dependent extracellular matrix production” value in the data set on cardiac fibroblasts [3] is given as “altered”.

Take PESKVIKNLLKVASKERSKRSP [IP-10-1]: in the data set with primary lung fibroblasts, the “number … (Calcein-AM uptake)” value is on record as “no impact”.

With PESRVIKNLLRVVSKEKSRRSP [IP-10-2], in the data set on primary lung fibroblasts, the “number … (Calcein-AM uptake)” value was “no impact”.
